Reference: article PMC9014415, “Repositioning of a Diaminothiazole Series Confirmed to Target the Cyclin-Dependent Kinase CRK12 for Use in the Treatment of African Animal Trypanosomiasis” (Journal of Medicinal Chemistry, 2022)
Marks after values point to notes of the source that are not given here.

How the values were obtained:
[1] = system: T. congolense (KONT2/133); test: Cattle efficacy for compound 2, intravenous infusion (Clinvet), T. congolense; assay type: in vivo, Trypanosoma congolense; settings: Friesian-Holstein cattle infected with T. congolense; n = 4; at 100 days
Protocol: Unfortunately, an injection site tolerability issue arose during the pharmacokinetic study in cattle that was not evident in rats. […] To circumvent these issues, compound 2 was assessed in an in vivo proof of concept efficacy study in Friesian-Holstein cattle using an IV infusion regimen. The study was conducted in four animals infected with T. congolense (KONT2/133) and four animals infected with T. vivax (STIB719). Three additional animals infected with each strain formed the vehicle control groups and were dosed IV once daily with saline. Pharmacokinetic modeling was used to define a dosing regimen that mimics the blood concentration–time profile that delivered cure in mice (10 mg/kg SC once daily for 2 days, with a Ctrough of >20 ng/mL (>38 nM)). A continuous infusion over 36 h and two loading doses 24 h apart were required. […]
Response to treatment was determined by monitoring parasitaemia twice a week until day 21. […]
In each of the cattle efficacy studies (3.3, 3.4 and 3.5), efficacy was assessed primarily on absence of recrudescence of parasitaemia for 100 days after treatment administration together with improvements in Packed Cell Volume, body weight and clinical signs of infected compared with uninfected animals. […]

T. vivax = test: Cattle efficacy for compound 2, intramuscular (CIRDES), T. vivax; assay type: in vivo, Trypanosoma vivax
Protocol: Compound 2 was progressed into IM efficacy studies dosing at 10 mg/kg either once or twice, 15 h apart, in cattle infected with T. congolense or T. vivax. […]
3.5 Cattle efficacy for compound 2, intramuscular (CIRDES)
Felani-zebu cattle were housed in a fly-proof facility, acclimatised for 15 d prior to the study, cattle were treated with an anthelmintic, an ectoparasiticide and an antibiotic. Donor animals were infected with stabilates (frozen stocks) of either T. congolense KOT256 (resistant to 7 mg/kg diminazene in cattle) or T. vivax Gando Bongaly (resistant to diminazene 7 mg/kg and to isometamidium 1 mg/kg […]
in cattle). Blood from the donor animals, diluted with phosphate buffered glucose was used to infect recipient animals IV via the jugular vein. Infection was with approximately 100,000 fresh viable parasites. The compounds were given IM. Each injection was up to 10 mL and given in neck in the following order: left anterior third, right anterior third, left posterior third and right posterior third.
Animals over 240 kg required a fifth injection site for the IVP, and this was given in the left or right hind leg. Cattle were randomised to treatments. Parasitaemia was monitored 3 times per calendar week, though collection of blood and assessment of clinical symptoms. Blood samples were also […]
treatment). […]

Question: CC(C)CS(=O)(=O)N[C@H]1CC[C@H](Nc2nc(N)c(C(=O)c3c(F)cc(CN(C)C)cc3F)s2)CC1 [Compound 2, N-(trans)-[4-[[4-Amino-5-[4-(dimethylaminomethyl)-2,6-difluoro-benzoyl]thiazol-2-yl]amino]cyclohexyl]-2-methyl-propane-1-sulfonamide] was tested. Which “Efficacy in cattle, IV bolus and infusion” value [1] did it give?
Answer: Its value is “cured”.

Question: And the efficacy (T. vivax; T5, 10 mg/kg IM once)?
Answer: Its efficacy is 0/5 ^a.

Question: And the “Efficacy, individual animals” value (T. vivax; T5 dosed once IM, animals 1907, 1918, 1932, 1933, 1940)?
Answer: The value was “No”.

Question: What about the efficacy (T. vivax; T6, 10 mg/kg IM twice, 15 h apart) of the same molecule?
Answer: Its efficacy is 0/3 ^a.

Question: And the “Efficacy, individual animals” value (T. vivax; T6 dosed twice IM, animals 1902, 1926, 1929)?
Answer: Its value is “No”.

Question: And the efficacy (T. vivax; T9, saline twice, followed by compound 2 rescue dose twice IM 4 days later)?
Answer: The efficacy was 0/2 ^a.

Question: And the “Efficacy, individual animals” value (T. vivax; T9 after 2 (rescue IM), animals 1931, 1934)?
Answer: The value was “No and no”.

Question: What about the Cattle cured (T. vivax; T. vivax-infected cattle, 10 mg/kg IM once or twice, 10 mg/kg) of the same molecule?
Answer: Its Cattle cured is “none and not cured”.
